# “Also recorded” adds a separate entry of the source.
# What was measured:
# [1] = tested on: hornworm nerve cord PDE (cyclic AMP phosphodiesterase); assay: Inhibition of cyclic AMP phosphodiesterase activity in homogenates of tobacco hornworm nerve cord; type: biochemical, Manduca sexta; conditions: for activity of structurally similar compounds tested as described in Example 46: Example 47
# Method: Nerve cord was dissected from 40-60 mm long M. sexta larvae, cleaned, and homogenized (2 mg/ml) in 6 Mm Tris-maleate, pH 7.4. PDE activity was measured (4 min. incubation at 30° C.) in an assay system (0.1 ml) containing 80 mM Tris-maleate, pH 7.4; 6 mM Mg--SO4; 10^-7 M^3 H-cyclic AMP; and tissue homogenate (0.02 ml). Nerve cord was evaluated in the presence and the absence of the xanthine derivative. For purposes of the evaluation, the rate of formation of ^3 H-5' AMP was measured using the technique described in Filburn, C. […] The values shown in FIG. 1D are the mean (±SEM) of three separate experiments.
# [2] = tested on: Manduca sexta (tobacco hornworm) larvae; assay: Antifeeding test: tomato leaves sprayed with compound, tobacco hornworm larvae; type: in vivo; conditions: for Vmax (percent inhibition of feeding at the highest dose used): highest dose usually a 3% spray solution; for EC50 (spray concentration required to cause 50% inhibition of feeding): spray on tomato leaves, calculated from dose-response curves, Manduca sexta 6 per leaf
# [3] = tested on: cockroach brain phosphodiesterase; conditions: in vitro; cited from earlier work
# [4] = tested on: cockroach brain adenylate cyclase; conditions: in vitro; cited from earlier work
# [5] = target: adenosine receptor; conditions: Daly 1982; Bruns et al.; cited from earlier work
Structure (SMILES),Vmax (percent inhibition of feeding at the highest dose used) [2],EC50 (spray concentration required to cause 50% inhibition of feeding) [2],also measured
"Cn1c(=O)c2ncn(C)c2n(C)c1=O [1,3,9-trimethyl-xanthine]",,,activity of structurally similar compounds tested as described in Example 46 [1]: only weakly active
"CC(=O)n1cnc2c1c(=O)n(C)c(=O)n2C [Example 41, 1,3-dimethyl-7-acetyl-xanthine]",18%,> 3 % (gm/100 ml),
"Cn1c(=O)[nH]c(=O)c2[nH]cnc21 [Example 34, 3-methyl-xanthine]",8%,> 3 % (gm/100 ml),
"CCCn1c(=O)c2[nH]c(-c3ccccc3)nc2n(CCC)c1=O [Example 43, 1,3-dipropyl-8-phenyl-xanthine]",0%,> 3 % (gm/100 ml),
"Cn1c(=O)c2c(nc(Cl)n2C)n(C)c1=O [Example 44, 1,3,7-trimethyl-8-chloro-xanthine]",40%,> 3 % (gm/100 ml),
"Cc1nc2[nH]c(=O)[nH]c(=O)c2[nH]1 [Example 36, 8-methyl-xanthine]",35%,> 3 % (gm/100 ml),
Cc1ccc2nc3sc(=O)sc3nc2c1 [Oxythioquinox],,,effect on cockroach brain phosphodiesterase (in words) [3]: most potent inhibitor; inhibition of cockroach brain phosphodiesterase [3]: over 80%; direct effect on cockroach brain adenylate cyclase (in words) [4]: essentially no direct effects
"O=c1c2[nH]cnc2n(Cc2ccccc2)c(=O)n1Cc1ccccc1 [Example 19, 1,3-dibenzyl-xanthine]",70%,0.45 % (gm/100 ml),
"C=CCn1c(=O)c2[nH]cnc2n(CC=C)c1=O [Example 18, 1,3-diallyl-xanthine]",99%,0.35 % (gm/100 ml),
"Cn1c(=O)c2ncn(C)c2n(C)c1=O [Example 45, 1,3,9-trimethyl-xanthine]",50%,> 3 % (gm/100 ml),pesticidal and pestistatic activity class (active / inactive / weakly active) ([2]; Table 1 grouping): weakly active
"COc1ccc(Cc2nccc3cc(OC)c(OC)cc23)cc1OC [papavarine, reference compound]",,,"EC50, ability of Manducca to feed ([2]; in vivo): 0.1 % spray; Ki ([1]; read-out: Ki, insect PDE): 40 µM"
Cc1cc(OC(=O)N(C)C)nn1C(=O)N(C)C [Dimetilan],,,direct effect on cockroach brain adenylate cyclase (in words) [4]: essentially no direct effects
"Cn1c(=O)c2c(ncn2CCCl)n(C)c1=O [Example 24, 1,3-dimethyl,7-(2-chlorethyl)-xanthine]",95%,0.3 % (gm/100 ml),
"CCCCn1c(=O)c2[nH]cnc2n(CCCC)c1=O [Example 31, 1,3-dibutyl-xanthine]",90%,0.044 % (gm/100 ml),
"O=c1[nH]c(=O)c2[nH]cnc2[nH]1 [Example 32, xanthine]",0%,> 3 % (gm/100 ml),
COP(=O)(OC)Oc1ccc([N+](=O)[O-])cc1 [methylparaoxon],,,direct effect on cockroach brain adenylate cyclase (in words) [4]: essentially no direct effects
ClC1=C(Cl)[C@]2(Cl)[C@@H]3[C@@H]4C[C@@H]([C@H]5O[C@@H]45)[C@@H]3[C@@]1(Cl)C2(Cl)Cl [Dieldrin],,,effect on cockroach brain phosphodiesterase (in words) [3]: activators of phosphodiesterase; direct effect on cockroach brain adenylate cyclase (in words) [4]: essentially no direct effects
CCOP(=O)(OCC)OP(=O)(OCC)OCC [TEPP],,,direct effect on cockroach brain adenylate cyclase (in words) [4]: essentially no direct effects
"CCCn1c(=O)c2c(ncn2CCC)n(CCC)c1=O [Example 29, 1,3,7-tripropyl-xanthine]",95%,0.19 % (gm/100 ml),

Structure (SMILES),Vmax (percent inhibition of feeding at the highest dose used) [2],EC50 (spray concentration required to cause 50% inhibition of feeding) [2],also measured
"Cn1c(=O)[nH]c2nc[nH]c2c1=O [Example 33, 1-methyl-xanthine]",21%,> 3 % (gm/100 ml),
"CC(C)CCn1c(=O)c2[nH]cnc2n(CC(C)C)c1=O [Example 21, 1-isoamyl,3-isobutyl-xanthine]",> 52%,0.2 % (gm/100 ml),
Clc1ccc(C(c2ccc(Cl)cc2)C(Cl)(Cl)Cl)cc1 [DDT],,,effect on cockroach brain phosphodiesterase (in words) [3]: activators of phosphodiesterase; direct effect on cockroach brain adenylate cyclase (in words) [4]: essentially no direct effects
"CCn1c(=O)c2[nH]cnc2n(CC)c1=O [Example 16, 1,3-diethyl-xanthine]",98%,0.33 % (gm/100 ml),
"Cn1c(=O)[nH]c2[nH]c(=O)n(C)c2c1=O [Example 39, 1,7-dimethyl-uric acid]",30%,> 3 % (gm/100 ml),
"Cn1c(=O)c2c([nH]c(=O)n2C)n(C)c1=O [Example 40, 1,3,7-trimethyl-uric acid]",40%,> 3 % (gm/100 ml),
"CCCn1c(=O)c2c(ncn2C)n(CCC)c1=O [Example 28, 1,3-dipropyl,7-methyl-xanthine]",84%,0.48 % (gm/100 ml),
C=C(C)[C@H]1Cc2c(ccc3c2O[C@@H]2COc4cc(OC)c(OC)cc4[C@@H]2C3=O)O1 [Rotenone],,,direct effect on cockroach brain adenylate cyclase (in words) [4]: essentially no direct effects
"CCn1c(=O)n(CCc2ccccc2)c(=O)c2[nH]cnc21 [Example 22, 1-phenethyl,3-ethyl-xanthine]",96%,0.6 % (gm/100 ml),
"Cn1c(=O)[nH]c2ncn(C)c2c1=O [Example 38, 1,7-dimethyl-xanthine]",30%,> 3 % (gm/100 ml),activity of structurally similar compounds tested as described in Example 46 [1]: inactive
"Cn1c(=O)c2[nH]c(-c3ccccc3)nc2n(C)c1=O [Example 42, 1,3-dimethyl-8-phenyl-xanthine]",38%,> 3 % (gm/100 ml),"antifeeding effect (in words) ([2]; FIG. 1C, listed as 8-phenyltheophylline): relatively weak effects; also recorded: little antifeeding effect; PDE inhibition (in words) ([1]; FIG. 1D): very weak PDE inhibitor; Ki [5]: 0.12 to 1 µM"
"CCCn1c(=O)c2c(ncn2Cc2ccccc2)n(CCC)c1=O [Example 30, 1,3-dipropyl,7-benzyl-xanthine]",96%,0.08 % (gm/100 ml),
"Cn1cnc2[nH]c(=O)[nH]c(=O)c21 [Example 35, 7-methyl-xanthine]",29%,> 3 % (gm/100 ml),
"CCCn1c(=O)c2[nH]cnc2n(CCC)c1=O [Example 17, 1,3-dipropyl-xanthine]",95%,0.035 % (gm/100 ml),
"Cn1cnc2c1c(=O)[nH]c(=O)n2C [Example 27, 3,7-dimethyl-xanthine (theobromine), reference compound]",87%,1.0 % (gm/100 ml),
"COc1nc2c(c(=O)n(C)c(=O)n2C)n1C [Example 26, 1,3,7-trimethyl,8-methoxy-xanthine]",86%,0.5 % (gm/100 ml),
C=CCC1=C(C)C(OC(=O)C2C(C=C(C)C)C2(C)C)CC1=O (stereo not drawn) [Allethrin],,,direct effect on cockroach brain adenylate cyclase (in words) [4]: essentially no direct effects
"CC(O)Cn1cnc2c1c(=O)n(C)c(=O)n2C (stereo not drawn) [Example 25, 1,3-dimethyl,7-(beta-hydroxypropyl-xanthine)]",95%,1.5 % (gm/100 ml),
CNC(=O)O/N=C/C(C)(C)SC [Aldicarb],,,direct effect on cockroach brain adenylate cyclase (in words) [4]: essentially no direct effects

# Source: patent US4883801A, “Xanthine derivative pest control agents” (priority 1986, dated 1989)
